# Values quoted from earlier work in US6559183B1, “Nano-emulsion of 5-aminolevulinic acid” (ASAT AG Applied Science & Technology, priority 1998, dated 2003).
# Details: high concentrations required for clinical application, neutral to basic pH range, 25 h
smiles,measurement,value
"NCC(=O)CCC(=O)O [aminolevulinic acid, 5-aminolevulinic acid]",stability in aqueous solutions,unstable
